Laboratory results reported in US10611771B2, “Pyrazolo [3,4-d] pyrimidine derivative” (WEST CHINA HOSPITAL, SICHUAN UNIVERSITY, priority 2016, dated 2020).
“And” between values parts separate entries of the source, which are not always exact repeats. Equal entries are not always repeated.

Legend:
[1] = system: A549 cells; assay: MTT detection method, inhibitory effect against A549 cells; assay type: cell-based
Excerpt: (§1) MTT detection method was used, and MTT is a yellow compound and a dye accepting hydrogen ions, and can be used as the respiratory chain in mitochondria of viable cells. Under the action of succinate dehydrogenase and cytochrome C, the tetrazolium ring broke to form blue formanzan crystal, and the formation amount of formanzan crystal was only directly proportional to the viable counts. The formanzan crystal formed by reduction can dissolve in dimethyl sulfoxide (DMSO), and the optical density (OD) value can be determined at 490 nm using ELISA, to reflect the viable counts.
(§2) • Lung cancer cell lines: A549 and H1299. • Experimental materials: lung cancer cell lines, instruments and tools for cell culture, MTT, the compound mother liquid (10 mmol/L), and the positive control drug Src inhibitor pp1. 1. Specific Method • (3-1) Cell lines A549 and H1299 were recovered, and when the cells were in good conditions, namely cells grew to about 80% after one passage (i.e. the logarithmic growth phase), the cells were planked (96-well plate). • (3-2) Firstly, cells were collected, and the concentration of cell suspension was adjusted with counting chamber. Cells were seeded in 96-well plate at 1000˜10000 cells/well, and the detailed cell numbers in each well were dependent on the growth rate of different cells and the action time of drugs. A549 cells were seeded at 5000 cells, while H1299 cells were also seeded at 5000 cells, 200 μl for each well (100 μl cell suspension+100 μl drug dilution at different concentration gradient). The edge wells (36) were added 200 μl culture media (for prevention of edge effect). • (3-3) After planking and adding drugs, the plate was treated at 24 h, 48 h, and 72 h, and then for coloration, each well was added 200 μl culture media containing 20 μl MTT solution (5 mg/mL). The plate was continually cultured for 1˜4 hours, the incubation was stopped, and the culture supernatant fluid in each well was carefully absorbed. For suspension cells, the culture supernatant fluid in each well need be centrifuged before drawing. 150 μl DMSO was added to each well, and the plate was shaken on a shaking table for 15˜20 min, to allow the crystals to be completely dissolved. • (3-4) Colorimetry: The colorimetry was performed by ELISA, and the optical absorption value of each well was tested at a wavelength of 490 nm or 570 nm, and the result was recorded. • (3-5) Calculation Inhibition ratio=(the control−the drug)/the control×100% • IC50 (50% inhibitory concentration) can be calculated by spass software based on the inhibitory ratio at different concentration. II. Experimental Results • A549 cells were treated at 4 h, 24 h, 48 h, 72 h, and the drug dose was divided into the light concentration group (10 μm, 25 μm, 40 μm) and the high concentration group (50 μm, 80 μm, 100 μm), that were seeded at 6000 cells/well and 5000 cells/well, respectively, to carry out the experiment.

[2] = system: H1299 cells; assay: MTT detection method, inhibitory effect against H1299 cells; assay type: cell-based
Excerpt: as §1, §2
H1299 cells were seeded at 5000 cells/well, and after treatment for 4 h, 24 h, 48 h, and 72 h, the results were shown in Tables 5-9 and FIGS. 5-8: […]

Compound: CCCCn1nc(-c2ccc(OCCOCCOCCOCCOS(=O)(=O)c3ccc(C)cc3)cc2)c2c(N)ncnc21 [Compound 2, 2-(2-(2-(2-(4-(4-amino-1-n-butyl-1H-pyrazolo[3,4-d]pyrimidin-3-)phenoxy)ethoxy)ethoxy)ethoxy)ethyl 4-methylbenzenesulfonic Acid]
- The inhibitory ratio (%) for three parallel assays ([1]; 4 h, 10 μm): 25.00% and 30.31% and 29.06%
- The mean inhibitory ratio (%) ([1]; 4 h, 10 μm): 28.13%
- The inhibitory ratio (%) for three parallel assays ([1]; 4 h, 25 μm): 14.38% and 17.19% and 13.44%
- The mean inhibitory ratio (%) ([1]; 4 h, 25 μm): 15.00%
- The mean inhibitory ratio (%) ([1]; 4 h, 40 μm): 14.17%
- The inhibitory ratio (%) for three parallel assays ([1]; 4 h, 50 μm): 34.57%
- The mean inhibitory ratio (%) ([1]; 4 h, 50 μm): 34.57%
- The inhibitory ratio (%) for three parallel assays ([1]; 4 h, 80 μm): 34.86% and 36.86% and 35.14%
- The mean inhibitory ratio (%) ([1]; 4 h, 80 μm): 35.62%
- The inhibitory ratio (%) for three parallel assays ([1]; 4 h, 100 μm): 39.43% and 38.29% and 35.71%
- The mean inhibitory ratio (%) ([1]; 4 h, 100 μm): 37.81%
- The inhibitory ratio (%) for three parallel assays ([1]; 24 h, 10 μm): 16.09% and 20.22% and 12.83%
- The mean inhibitory ratio (%) ([1]; 24 h, 10 μm): 16.38%
- The inhibitory ratio (%) for three parallel assays ([1]; 24 h, 25 μm): 20.43% and 18.48% and 18.70%
- The mean inhibitory ratio (%) ([1]; 24 h, 25 μm): 19.20%
- The inhibitory ratio (%) for three parallel assays ([1]; 24 h, 40 μm): 18.48% and 24.35% and 23.91%
- The mean inhibitory ratio (%) ([1]; 24 h, 40 μm): 22.25%
- The inhibitory ratio (%) for three parallel assays ([1]; 24 h, 50 μm): 71.46% and 71.25% and 71.04%
- The mean inhibitory ratio (%) ([1]; 24 h, 50 μm): 71.25%
- The inhibitory ratio (%) for three parallel assays ([1]; 24 h, 80 μm): 75.63% and 75.83% and 74.79%
- The mean inhibitory ratio (%) ([1]; 24 h, 80 μm): 75.42%
- The inhibitory ratio (%) for three parallel assays ([1]; 24 h, 100 μm): 73.75% and 75.83% and 74.58%
- The mean inhibitory ratio (%) ([1]; 24 h, 100 μm): 74.72%
- The inhibitory ratio (%) for three parallel assays ([1]; 48 h, 10 μm): 24.84% and 31.41% and 29.22%
- The mean inhibitory ratio (%) ([1]; 48 h, 10 μm): 28.49%
- The inhibitory ratio (%) for three parallel assays ([1]; 48 h, 25 μm): 32.66% and 36.72% and 31.56%
- The mean inhibitory ratio (%) ([1]; 48 h, 25 μm): 33.65%
- The inhibitory ratio (%) for three parallel assays ([1]; 48 h, 40 μm): 47.97% and 47.66% and 49.06%
- The mean inhibitory ratio (%) ([1]; 48 h, 40 μm): 48.23%
- The inhibitory ratio (%) for three parallel assays ([1]; 48 h, 50 μm): 82.83% and 81.50% and 80.33%
- The mean inhibitory ratio (%) ([1]; 48 h, 50 μm): 81.56%
- The inhibitory ratio (%) for three parallel assays ([1]; 48 h, 80 μm): 82.67% and 83.00% and 82.83%
- The mean inhibitory ratio (%) ([1]; 48 h, 80 μm): 82.83%
- The inhibitory ratio (%) for three parallel assays ([1]; 48 h, 100 μm): 83.17% and 83.00% and 82.83%
- The mean inhibitory ratio (%) ([1]; 48 h, 100 μm): 83.00%
- The inhibitory ratio (%) for three parallel assays ([1]; 72 h, 10 μm): 30.00% and 29.46%
- The mean inhibitory ratio (%) ([1]; 72 h, 10 μm): 29.64%
- The inhibitory ratio (%) for three parallel assays ([1]; 72 h, 25 μm): 48.74% and 47.21% and 50.00%
- The mean inhibitory ratio (%) ([1]; 72 h, 25 μm): 48.65%
- The inhibitory ratio (%) for three parallel assays ([1]; 72 h, 40 μm): 68.92% and 70.36% and 70.63%
- The mean inhibitory ratio (%) ([1]; 72 h, 40 μm): 69.97%
- The inhibitory ratio (%) for three parallel assays ([1]; 72 h, 50 μm): 88.11% and 87.97% and 88.38%
- The mean inhibitory ratio (%) ([1]; 72 h, 50 μm): 88.15%
- The inhibitory ratio (%) for three parallel assays ([1]; 72 h, 80 μm): 88.51% and 88.38%
- The mean inhibitory ratio (%) ([1]; 72 h, 80 μm): 88.47%
- The inhibitory ratio (%) for three parallel assays ([1]; 72 h, 100 μm): 88.38% and 88.65% and 88.51%
- The mean inhibitory ratio (%) ([1]; 72 h, 100 μm): 88.51%
- The inhibitory ratio (%) for three parallel assays ([2]; 4 h, 10 μm): 9% and 12% and 2%
- The mean inhibitory ratio (%) ([2]; 4 h, 10 μm): 7%
- The inhibitory ratio (%) for three parallel assays ([2]; 4 h, 25 μm): 12% and 15%
- The mean inhibitory ratio (%) ([2]; 4 h, 25 μm): 13%
- The inhibitory ratio (%) for three parallel assays ([2]; 4 h, 40 μm): 16% and 17%
- The mean inhibitory ratio (%) ([2]; 4 h, 40 μm): 16%
- The inhibitory ratio (%) for three parallel assays ([2]; 4 h, 50 μm): 14% and 13%
- The mean inhibitory ratio (%) ([2]; 4 h, 50 μm): 14%
- The inhibitory ratio (%) for three parallel assays ([2]; 4 h, 80 μm): 11% and 10%
- The mean inhibitory ratio (%) ([2]; 4 h, 80 μm): 11%
- The inhibitory ratio (%) for three parallel assays ([2]; 4 h, 100 μm): 13% and 17% and 12%
- The mean inhibitory ratio (%) ([2]; 4 h, 100 μm): 14%
- The inhibitory ratio (%) for three parallel assays ([2]; 24 h, 10 μm): 10% and 9% and 13%
- The mean inhibitory ratio (%) ([2]; 24 h, 10 μm): 11%
- The inhibitory ratio (%) for three parallel assays ([2]; 24 h, 25 μm): 26% and 23% and 25%
- The mean inhibitory ratio (%) ([2]; 24 h, 25 μm): 25%
- The inhibitory ratio (%) for three parallel assays ([2]; 24 h, 40 μm): 36% and 35% and 37%
- The mean inhibitory ratio (%) ([2]; 24 h, 40 μm): 36%
- The inhibitory ratio (%) for three parallel assays ([2]; 24 h, 50 μm): 44% and 45% and 41%
- The mean inhibitory ratio (%) ([2]; 24 h, 50 μm): 43%
- The inhibitory ratio (%) for three parallel assays ([2]; 24 h, 80 μm): 42% and 41%
- The mean inhibitory ratio (%) ([2]; 24 h, 80 μm): 42%
- The inhibitory ratio (%) for three parallel assays ([2]; 24 h, 100 μm): 40%
- The mean inhibitory ratio (%) ([2]; 24 h, 100 μm): 40%
- The inhibitory ratio (%) for three parallel assays ([2]; 48 h, 10 μm): 16% and 20% and 21%
- The mean inhibitory ratio (%) ([2]; 48 h, 10 μm): 19%
- The inhibitory ratio (%) for three parallel assays ([2]; 48 h, 25 μm): 37% and 36%
- The mean inhibitory ratio (%) ([2]; 48 h, 25 μm): 37%
- The inhibitory ratio (%) for three parallel assays ([2]; 48 h, 40 μm): 57%
- The mean inhibitory ratio (%) ([2]; 48 h, 40 μm): 57%
- The inhibitory ratio (%) for three parallel assays ([2]; 48 h, 50 μm): 61%
- The mean inhibitory ratio (%) ([2]; 48 h, 50 μm): 61%
- The inhibitory ratio (%) for three parallel assays ([2]; 48 h, 80 μm): 64% and 63% and 62%
- The mean inhibitory ratio (%) ([2]; 48 h, 80 μm): 63%
- The inhibitory ratio (%) for three parallel assays ([2]; 48 h, 100 μm): 65% and 64% and 63%
- The mean inhibitory ratio (%) ([2]; 48 h, 100 μm): 64%
- The inhibitory ratio (%) for three parallel assays ([2]; 72 h, 10 μm): 28% and 24% and 27%
- The mean inhibitory ratio (%) ([2]; 72 h, 10 μm): 26%
- The inhibitory ratio (%) for three parallel assays ([2]; 72 h, 25 μm): 44% and 43% and 42%
- The mean inhibitory ratio (%) ([2]; 72 h, 25 μm): 43%
- The inhibitory ratio (%) for three parallel assays ([2]; 72 h, 40 μm): 65% and 64%
- The mean inhibitory ratio (%) ([2]; 72 h, 40 μm): 65%
- The inhibitory ratio (%) for three parallel assays ([2]; 72 h, 50 μm): 73% and 74%
- The mean inhibitory ratio (%) ([2]; 72 h, 50 μm): 74%
- The inhibitory ratio (%) for three parallel assays ([2]; 72 h, 80 μm): 80% and 78%
- The mean inhibitory ratio (%) ([2]; 72 h, 80 μm): 80%
- The inhibitory ratio (%) for three parallel assays ([2]; 72 h, 100 μm): 84% and 83% and 81%
- The mean inhibitory ratio (%) ([2]; 72 h, 100 μm): 83%
